What was measured:
[1] = molecular target: T1, baculovirus-expressed ALK (Homo sapiens, UniProt Q9UM73); test: ALK Kinase Assay (ELISA-type, time-resolved fluorescence); assay type: biochemical; conditions: ALK kinase inhibition, 1 μM ATP; read-out: ALK Activity
T1 construct: host or cells: baculovirus expression system
Procedure, shortened: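 Wells were coated with phospholipase C-γ at 10 μg/mL in Tris-buffered saline. Adding 30 ng/ml enzyme started the reaction, which ran at 37° C for 15 minutes before Eu-N1 PT66 antibody detection. Percent inhibition versus log10 concentration gave IC50 by variable-slope fit.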

[2] = molecular target: T2, c-Met (cytoplasmic domain) (Homo sapiens, UniProt P08581); test: c-Met Kinase Assay (same methods as for ALK, with modifications); assay type: biochemical; conditions: c-Met kinase inhibition, 1 μM ATP; read-out: cMet Activity
T2 construct: 10 ng/mL c-Met (cytoplasmic domain, Invitrogen Corporation #PV3143); purchased Invitrogen Corporation PV3143
T2 sequence (P08581 956-1390 limits assumed): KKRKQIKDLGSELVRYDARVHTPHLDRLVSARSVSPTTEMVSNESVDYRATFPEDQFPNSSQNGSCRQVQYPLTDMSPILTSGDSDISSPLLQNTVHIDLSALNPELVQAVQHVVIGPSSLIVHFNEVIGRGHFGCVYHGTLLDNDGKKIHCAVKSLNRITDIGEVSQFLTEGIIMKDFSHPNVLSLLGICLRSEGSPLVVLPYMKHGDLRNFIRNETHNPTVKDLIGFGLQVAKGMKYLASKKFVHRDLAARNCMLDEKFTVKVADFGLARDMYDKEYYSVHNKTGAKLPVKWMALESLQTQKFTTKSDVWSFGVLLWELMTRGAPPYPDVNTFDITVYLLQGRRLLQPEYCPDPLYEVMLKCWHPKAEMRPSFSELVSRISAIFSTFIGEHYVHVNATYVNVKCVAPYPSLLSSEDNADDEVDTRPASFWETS
Procedure, shortened: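 Steps: coat wells with PLC-γ (10 μg/mL, Tris-buffered saline); add 10 ng/mL c-Met cytoplasmic domain to initiate; incubate 15 min, 37° C; detect phosphoproduct via Eu-N1 PT66 antibody.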

T1 sequence (Q9UM73 19-1620): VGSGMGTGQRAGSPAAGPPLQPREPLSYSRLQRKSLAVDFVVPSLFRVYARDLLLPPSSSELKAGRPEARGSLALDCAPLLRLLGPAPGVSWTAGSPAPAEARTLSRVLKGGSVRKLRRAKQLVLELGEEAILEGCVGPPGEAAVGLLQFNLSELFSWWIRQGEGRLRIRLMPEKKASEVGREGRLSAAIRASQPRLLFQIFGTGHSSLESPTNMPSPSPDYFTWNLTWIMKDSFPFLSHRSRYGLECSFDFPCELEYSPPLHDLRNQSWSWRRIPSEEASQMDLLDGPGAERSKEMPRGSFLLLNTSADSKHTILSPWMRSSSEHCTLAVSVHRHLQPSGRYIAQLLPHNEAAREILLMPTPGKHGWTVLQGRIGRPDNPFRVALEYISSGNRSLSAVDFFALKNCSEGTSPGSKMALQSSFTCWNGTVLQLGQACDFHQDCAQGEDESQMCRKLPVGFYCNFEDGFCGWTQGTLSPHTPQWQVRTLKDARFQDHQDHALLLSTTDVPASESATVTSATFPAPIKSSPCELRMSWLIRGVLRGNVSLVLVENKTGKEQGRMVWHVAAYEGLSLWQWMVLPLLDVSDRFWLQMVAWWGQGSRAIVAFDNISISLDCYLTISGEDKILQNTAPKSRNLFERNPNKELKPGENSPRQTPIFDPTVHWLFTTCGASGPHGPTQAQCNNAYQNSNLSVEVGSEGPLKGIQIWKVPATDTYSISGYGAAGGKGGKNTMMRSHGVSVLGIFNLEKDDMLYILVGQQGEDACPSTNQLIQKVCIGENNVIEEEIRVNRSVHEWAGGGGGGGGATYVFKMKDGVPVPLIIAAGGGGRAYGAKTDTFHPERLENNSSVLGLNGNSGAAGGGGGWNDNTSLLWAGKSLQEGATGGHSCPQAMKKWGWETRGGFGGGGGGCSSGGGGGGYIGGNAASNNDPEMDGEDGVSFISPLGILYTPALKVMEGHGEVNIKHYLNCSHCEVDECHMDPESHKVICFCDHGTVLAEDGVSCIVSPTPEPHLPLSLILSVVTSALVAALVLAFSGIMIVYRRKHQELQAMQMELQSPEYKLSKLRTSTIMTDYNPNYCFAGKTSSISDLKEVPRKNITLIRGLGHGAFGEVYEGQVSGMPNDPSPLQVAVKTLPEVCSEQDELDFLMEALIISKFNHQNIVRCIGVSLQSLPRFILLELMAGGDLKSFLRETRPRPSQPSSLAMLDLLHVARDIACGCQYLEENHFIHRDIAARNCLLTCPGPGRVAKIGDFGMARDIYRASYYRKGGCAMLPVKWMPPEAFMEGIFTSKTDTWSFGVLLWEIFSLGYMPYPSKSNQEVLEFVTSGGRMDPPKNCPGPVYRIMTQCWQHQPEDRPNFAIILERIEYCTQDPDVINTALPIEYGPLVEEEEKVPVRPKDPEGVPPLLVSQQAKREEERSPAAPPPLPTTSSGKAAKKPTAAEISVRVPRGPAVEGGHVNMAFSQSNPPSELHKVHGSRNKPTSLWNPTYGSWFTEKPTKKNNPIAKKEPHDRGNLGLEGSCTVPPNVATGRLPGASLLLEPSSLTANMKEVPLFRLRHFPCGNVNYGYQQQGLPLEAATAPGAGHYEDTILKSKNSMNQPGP

Compound | IC50 [1] [nM] | IC50 [2] [nM]
CN1C(=O)OCCc2cc(Nc3ncc(Cl)c(Nc4cccc5c4OC(F)(F)O5)n3)ccc21 [Example 1768, 2-[5-Chloro-4-(2,2-difluoro-benzo[1,3]dioxol-4-ylamino)-pyrimidin-2-ylamino]-5-methyl-8,9-dihydro-5H-7-oxa-5-aza-benzocyclohepten-6-one] | 100 to 1000 | 1000 to 10000
CN1C(=O)OCCc2cc(Nc3ncc(Cl)c(Nc4cccc5[nH]ncc45)n3)ccc21 [Example 1769, 2-[5-Chloro-4-(1H-indazol-4-ylamino)-pyrimidin-2-ylamino]-5-methyl-8,9-dihydro-5H-7-oxa-5-aza-benzocyclohepten-6-one] | 100 to 1000 | 100 to 1000
CNC(=O)c1sc(Cl)c(C)c1Nc1nc(Nc2ccc3c(c2)CCOC(=O)N3C)ncc1Cl [Example 1770, 5-Chloro-3-[5-chloro-2-(5-methyl-6-oxo-5,6,8,9-tetrahydro-7-oxa-5-aza-benzocyclohepten-2-ylamino)-pyrimidin-4-ylamino]-4-methyl-thiophene-2-carboxylic acid methylamide] | 100 to 1000 | < 100
CNC(=O)c1sc(Br)c(C)c1Nc1nc(Nc2ccc3c(c2)CCOC(=O)N3C)ncc1Cl [Example 1771, 5-Bromo-3-[5-chloro-2-(5-methyl-6-oxo-5,6,8,9-tetrahydro-7-oxa-5-aza-benzocyclohepten-2-ylamino)-pyrimidin-4-ylamino]-4-methyl-thiophene-2-carboxylic acid methylamide] | 100 to 1000 | < 100
CNC(=O)c1sc(C)c(C)c1Nc1nc(Nc2ccc3c(c2)CCOC(=O)N3C)ncc1Cl [Example 1772, 5-Methyl-3-[5-chloro-2-(5-methyl-6-oxo-5,6,8,9-tetrahydro-7-oxa-5-aza-benzocyclohepten-2-ylamino)-pyrimidin-4-ylamino]-4-methyl-thiophene-2-carboxylic acid methylamide] | 1000 to 10000 | < 100
CNC(=O)c1cccc(OC(F)(F)F)c1Nc1nc(Nc2ccc3c(c2)CCOC(=O)N3C)ncc1Cl [Example 1773, 2-[5-Chloro-2-(5-methyl-6-oxo-5,6,8,9-tetrahydro-7-oxa-5-aza-benzocyclohepten-2-ylamino)-pyrimidin-4-ylamino]-N-methyl-3-trifluoromethoxy-benzamide] | > 10000 | 100 to 1000
CNC(=O)c1c(Cl)sc(Cl)c1Nc1nc(Nc2ccc3c(c2)CCOC(=O)N3C)ncc1Cl [Example 1774, 2,5-Dichloro-4-[5-chloro-2-(5-methyl-6-oxo-5,6,8,9-tetrahydro-7-oxa-5-aza-benzocyclohepten-2-ylamino)-pyrimidin-4-ylamino]-thiophene-3-carboxylic acid methylamide] | 1000 to 10000 | 100 to 1000
CNC(=O)c1noc(C)c1Nc1nc(Nc2ccc3c(c2)CCOC(=O)N3C)ncc1Cl [Example 1775, 4-[5-Chloro-2-(5-methyl-6-oxo-5,6,8,9-tetrahydro-7-oxa-5-aza-benzocyclohepten-2-ylamino)-pyrimidin-4-ylamino]-5-methyl-isoxazole-3-carboxylic acid methyl amide] | > 10000 | 1000 to 10000
CNC(=O)c1cnn(C)c1Nc1nc(Nc2ccc3c(c2)CCOC(=O)N3C)ncc1Cl [Example 1776, 5-[5-Chloro-2-(5-methyl-6-oxo-5,6,8,9-tetrahydro-7-oxa-5-aza-benzocyclohepten-2-ylamino)-pyrimidin-4-ylamino]-1-methyl-1H-pyrazole-4-carboxylic acid methylamide] | 1000 to 10000 | 100 to 1000
COCCOc1ccccc1Nc1nc(Nc2ccc3c(c2)CCOC(=O)N3C)ncc1Cl [Example 1777, 2-{5-Chloro-4-[2-(2-methoxy-ethoxy)-phenylamino]-pyrimidin-2-ylamino}-5-methyl-8,9-dihydro-5H-7-oxa-5-aza-benzocyclohepten-6-one] | 100 to 1000 | 100 to 1000
COCCOc1cccc(F)c1Nc1nc(Nc2ccc3c(c2)CCOC(=O)N3C)ncc1Cl [Example 1778, 2-{5-Chloro-4-[2-fluoro-6-(2-methoxy-ethoxy)-phenylamino]-pyrimidin-2-ylamino}-5-methyl-8,9-dihydro-5H-7-oxa-5-aza-benzocyclohepten-6-one] | 100 to 1000 | 100 to 1000
C#CCOc1cccc(F)c1Nc1nc(Nc2ccc3c(c2)CCOC(=O)N3C)ncc1Cl [Example 1779, 2-[5-Chloro-4-(2-fluoro-6-prop-2-ynyloxy-phenylamino)-pyrimidin-2-ylamino]-5-methyl-8,9-dihydro-5H-7-oxa-5-aza-benzocyclohepten-6-one] | 100 to 1000 | 100 to 1000
C=CCOc1cccc(F)c1Nc1nc(Nc2ccc3c(c2)CCOC(=O)N3C)ncc1Cl [Example 1780, 2-[4-(2-Allyloxy-6-fluoro-phenylamino)-5-chloro-pyrimidin-2-ylamino]-5-methyl-8,9-dihydro-5H-7-oxa-5-aza-benzocyclohepten-6-one] | < 100 | < 100
CN1C(=O)OCCc2cc(Nc3ncc(Cl)c(Nc4c(F)cccc4OCCN)n3)ccc21 [Example 1781, 2-{4-[2-(2-Amino-ethoxy)-6-fluoro-phenylamino]-5-chloro-pyrimidin-2-ylamino}-5-methyl-8,9-dihydro-5H-7-oxa-5-aza-benzocyclohepten-6-one] | 1000 to 10000 | 1000 to 10000
CC(=O)NCCOc1cccc(F)c1Nc1nc(Nc2ccc3c(c2)CCOC(=O)N3C)ncc1Cl [Example 1782, N-(2-{2-[5-Chloro-2-(5-methyl-6-oxo-5,6,8,9-tetrahydro-7-oxa-5-aza-benzocyclohepten-2-ylamino)-pyrimidin-4-ylamino]-3-fluoro-phenoxy}-ethyl)-acetamide] | 1000 to 10000 | 1000 to 10000
CCNc1nnc(-c2ccccc2Nc2nc(Nc3ccc4c(c3)CCOC(=O)N4C)ncc2Cl)o1 [Example 1783, 2-{5-Chloro-4-[2-(5-ethylamino-[1,3,4]oxadiazol-2-yl)-phenylamino]-pyrimidin-2-ylamino}-5-methyl-8,9-dihydro-5H-7-oxa-5-aza-benzocyclohepten-6-one] | 1000 to 10000 | 100 to 1000
Cc1noc(-c2ccccc2Nc2nc(Nc3ccc4c(c3)CCOC(=O)N4C)ncc2Cl)n1 [Example 1784, 2-{5-Chloro-4-[2-(3-methyl-[1,2,4]oxadiazol-5-yl)-phenylamino]-pyrimidin-2-ylamino}-5-methyl-8,9-dihydro-5H-7-oxa-5-aza-benzocyclohepten-6-one] | 1000 to 10000 | 1000 to 10000
Cc1noc(-c2cccc(F)c2Nc2nc(Nc3ccc4c(c3)CCOC(=O)N4C)ncc2Cl)n1 [Example 1785, 2-{5-Chloro-4-[2-fluoro-6-(3-methyl-[1,2,4]oxadiazol-5-yl)-phenylamino]-pyrimidin-2-ylamino}-5-methyl-8,9-dihydro-5H-7-oxa-5-aza-benzocyclohepten-6-one] | 1000 to 10000 | 100 to 1000
Cc1nnc(-c2ccccc2Nc2nc(Nc3ccc4c(c3)CCOC(=O)N4C)ncc2Cl)o1 [Example 1786, 2-{5-Chloro-4-[2-(5-methyl-[1,3,4]oxadiazol-2-yl)-phenylamino]-pyrimidin-2-ylamino}-5-methyl-8,9-dihydro-5H-7-oxa-5-aza-benzocyclohepten-6-one] | 100 to 1000 | < 100
Cc1nnc(-c2cccc(F)c2Nc2nc(Nc3ccc4c(c3)CCOC(=O)N4C)ncc2Cl)o1 [Example 1787, 2-{5-Chloro-4-[2-fluoro-6-(5-methyl-[1,3,4]oxadiazol-2-yl)-phenylamino]-pyrimidin-2-ylamino}-5-methyl-8,9-dihydro-5H-7-oxa-5-aza-benzocyclohepten-6-one] | 1000 to 10000 | 100 to 1000
Cc1n[nH]c(-c2ccccc2Nc2nc(Nc3ccc4c(c3)CCOC(=O)N4C)ncc2Cl)n1 [Example 1788, 2-{5-Chloro-4-[2-(5-methyl-2H-[1,2,4]triazol-3-yl)-phenylamino]-pyrimidin-2-ylamino}-5-methyl-8,9-dihydro-5H-7-oxa-5-aza-benzocyclohepten-6-one] | < 100 | < 100
Cc1cnc(-c2cccc(F)c2Nc2nc(Nc3ccc4c(c3)CCOC(=O)N4C)ncc2Cl)o1 [Example 1789, 2-{5-Chloro-4-[2-fluoro-6-(5-methyl-oxazol-2-yl)-phenylamino]-pyrimidin-2-ylamino}-5-methyl-8,9-dihydro-5H-7-oxa-5-aza-benzocyclohepten-6-one] | 100 to 1000 | 100 to 1000
Cc1cnc(-c2sccc2Nc2nc(Nc3ccc4c(c3)CCOC(=O)N4C)ncc2Cl)o1 [Example 1790, 2-{5-Chloro-4-[2-(5-methyl-oxazol-2-yl)-thiophen-3-ylamino]-pyrimidin-2-ylamino}-5-methyl-8,9-dihydro-5H-7-oxa-5-aza-benzocyclohepten-6-one] | 100 to 1000 | 100 to 1000
CNCc1ccccc1Nc1nc(Nc2ccc3c(c2)CCOC(=O)N3C)ncc1Cl [Example 1791, 2-[5-Chloro-4-(2-methylaminomethyl-phenylamino)-pyrimidin-2-ylamino]-5-methyl-8,9-dihydro-5H-7-oxa-5-aza-benzocyclohepten-6-one] | 1000 to 10000 | 1000 to 10000
CC(=O)N(C)Cc1ccccc1Nc1nc(Nc2ccc3c(c2)CCOC(=O)N3C)ncc1Cl [Example 1792, N-{2-[5-Chloro-2-(5-methyl-6-oxo-5,6,8,9-tetrahydro-7-oxa-5-aza-benzocyclohepten-2-ylamino)-pyrimidin-4-ylamino]-benzyl}-N-methyl-acetamide] | 1000 to 10000 | 1000 to 10000
